Laboratory results: ChEMBL document CHEMBL3872204, “Synthesis and immunopotentiating activity of novel isoxazoline functionalized coumarins” (Eur J Med Chem, 2016)
Activity calls are given as the source filed them. No cut-off for these calls is given here.

Key:
Splenic lymphocyte [1] = assay: Immunopotentiating activity in splenic lymphocytes (unknown origin) assessed as effect on proliferation by measuring cell viability at 0.1 to 1 ug/ml pretreated followed by incubation of lymphocytes with ConA for 48 hrs by MTT assay; assay type: functional, cell-based
Splenic lymphocyte [2] = assay: Immunopotentiating activity in splenic lymphocytes (unknown origin) assessed as effect on proliferation by measuring cell viability at 0.1 to 1 ug/ml pretreated followed by incubation of lymphocytes with LPS for 48 hrs by MTT assay; assay type: functional, cell-based
Splenic lymphocyte [3] = assay: Immunopotentiating activity in splenic lymphocytes (unknown origin) assessed as effect on proliferation by measuring cell viability at 10 ug/ml pretreated followed by incubation of lymphocytes with ConA for 48 hrs by MTT assay; assay type: functional, cell-based
Splenic lymphocyte [4] = assay: Immunopotentiating activity in splenic lymphocytes (unknown origin) assessed as effect on proliferation by measuring cell viability at 10 ug/ml pretreated followed by incubation of lymphocytes with LPS for 48 hrs by MTT assay; assay type: functional, cell-based
Splenic lymphocyte [5] = assay: Immunopotentiating activity in splenic lymphocytes (unknown origin) assessed as effect on proliferation by measuring cell viability pretreated followed by incubation of lymphocytes with ConA for 48 hrs by MTT assay; assay type: functional, cell-based
Splenic lymphocyte [6] = assay: Immunopotentiating activity in splenic lymphocytes (unknown origin) assessed as effect on proliferation by measuring cell viability pretreated followed by incubation of lymphocytes with LPS for 48 hrs by MTT assay; assay type: functional, cell-based
Mus musculus [7] = assay: Immunopotentiating activity in sheep RBC-immunized BALB/c mouse assessed as B-cell activation by measuring IgM antibody titer in serum at 0.001 mg/kg, po for 14 days measured on day 7 post dose by hemagglutinination technique; assay type: functional, organism-based
Mus musculus [8] = assay: Immunopotentiating activity in sheep RBC-immunized BALB/c mouse assessed as B-cell activation by measuring IgM antibody titer in serum at 0.01 mg/kg, po for 14 days measured on day 7 post dose by hemagglutinination technique; assay type: functional, organism-based
Mus musculus [9] = assay: Immunopotentiating activity in sheep RBC-immunized BALB/c mouse assessed as B-cell activation by measuring IgM antibody titer in serum at 0.1 mg/kg, po for 14 days measured on day 7 post dose by hemagglutinination technique; assay type: functional, organism-based
Mus musculus [10] = assay: Immunopotentiating activity in sheep RBC-immunized BALB/c mouse assessed as B-cell activation by measuring IgG antibody titer in serum at 0.001 mg/kg, po for 14 days by hemagglutinination technique; assay type: functional, organism-based
Mus musculus [11] = assay: Immunopotentiating activity in sheep RBC-immunized BALB/c mouse assessed as B-cell activation by measuring IgG antibody titer in serum at 0.01 mg/kg, po for 14 days by hemagglutinination technique; assay type: functional, organism-based
Mus musculus [12] = assay: Immunopotentiating activity in sheep RBC-immunized BALB/c mouse assessed as B-cell activation by measuring IgG antibody titer in serum at 0.1 mg/kg, po for 14 days by hemagglutinination technique; assay type: functional, organism-based
Mus musculus [13] = assay: Immunopotentiating activity in sheep RBC-immunized BALB/c mouse assessed as increase in delayed-type hypersensitivity response by measuring left hind foot pad thickness at 0.001 mg/kg, po qd administered 2 hrs post immunization for 7 days measured 24 to 48 hrs post SRBC challenge by spheromicrometer method; assay type: functional, organism-based
Mus musculus [14] = assay: Immunopotentiating activity in sheep RBC-immunized BALB/c mouse assessed as increase in isolated splenic T-cell proliferation administered orally for 14 days followed by incubation of isolated splenocytes with ConA for 72 hrs by MTT assay; assay type: functional
Mus musculus [15] = assay: Immunopotentiating activity in sheep RBC-immunized BALB/c mouse assessed as increase in isolated splenic T-cell proliferation administered orally for 14 days followed by incubation of isolated splenocytes with LPS for 72 hrs by MTT assay; assay type: functional
Mus musculus [16] = assay: Immunopotentiating activity in sheep RBC-immunized BALB/c mouse assessed as increase in isolated splenic […] proliferation administered orally for 14 days followed by incubation of isolated splenocytes with ConA for 72 hrs by MTT assay; assay type: functional
Mus musculus [17] = assay: Immunopotentiating activity in sheep RBC-immunized BALB/c mouse assessed as increase in isolated splenic B-cell proliferation administered orally for 14 days followed by incubation of isolated splenocytes with LPS for 72 hrs by MTT assay; assay type: functional
Mus musculus [18] = assay: Immunopotentiating activity in sheep RBC-immunized BALB/c mouse assessed as CD4-positive splenic T-cells at 0.001 mg/kg, po for 14 days by flow cytometry (reference value: 20.7 +/- 0.9%); assay type: functional
Mus musculus [19] = assay: Immunopotentiating activity in sheep RBC-immunized BALB/c mouse assessed as CD4-positive splenic T-cells at 0.01 mg/kg, po for 14 days by flow cytometry (reference value: 20.7 +/- 0.9%); assay type: functional
Mus musculus [20] = assay: Immunopotentiating activity in sheep RBC-immunized BALB/c mouse assessed as CD4-positive splenic T-cells at 0.1 mg/kg, po for 14 days by flow cytometry (reference value: 20.7 +/- 0.9%); assay type: functional
Mus musculus [21] = assay: Immunopotentiating activity in sheep RBC-immunized BALB/c mouse assessed as CD8-positive splenic T-cells at 0.001 mg/kg, po for 14 days by flow cytometry (reference value: 13.3 +/- 0.34%); assay type: functional
Mus musculus [22] = assay: Immunopotentiating activity in sheep RBC-immunized BALB/c mouse assessed as CD8-positive splenic T-cells at 0.01 mg/kg, po for 14 days by flow cytometry (reference value: 13.3 +/- 0.34%); assay type: functional
Mus musculus [23] = assay: Immunopotentiating activity in sheep RBC-immunized BALB/c mouse assessed as CD8-positive splenic T-cells at 0.1 mg/kg, po for 14 days by flow cytometry (reference value: 13.3 +/- 0.34%); assay type: functional
Mus musculus [24] = assay: Immunopotentiating activity in sheep RBC-immunized BALB/c mouse assessed as ratio of CD4-positive splenic T-cells to CD8-positive splenic T-cells at 0.001 mg/kg, po for 14 days by flow cytometry (RVB = 1.56 +/- 0.09); assay type: functional
Mus musculus [25] = assay: Immunopotentiating activity in sheep RBC-immunized BALB/c mouse assessed as ratio of CD4-positive splenic T-cells to CD8-positive splenic T-cells at 0.01 mg/kg, po for 14 days by flow cytometry (RVB = 1.56 +/- 0.09); assay type: functional
Mus musculus [26] = assay: Immunopotentiating activity in sheep RBC-immunized BALB/c mouse assessed as ratio of CD4-positive splenic T-cells to CD8-positive splenic T-cells at 0.1 mg/kg, po for 14 days by flow cytometry (RVB = 1.56 +/- 0.09); assay type: functional
Mus musculus [27] = assay: Immunopotentiating activity in sheep RBC-immunized BALB/c mouse assessed as CD4-positive T-cell content in spleen at 0.001 mg/kg, po for 14 days by flow cytometry (reference value: 2.7 +/- 0.12 10^7No_unit); assay type: functional
Mus musculus [28] = assay: Immunopotentiating activity in sheep RBC-immunized BALB/c mouse assessed as CD4-positive T-cell content in spleen at 0.01 mg/kg, po for 14 days by flow cytometry (reference value: 2.7 +/- 0.12 10^7No_unit); assay type: functional
Mus musculus [29] = assay: Immunopotentiating activity in sheep RBC-immunized BALB/c mouse assessed as CD4-positive T-cell content in spleen at 0.1 mg/kg, po for 14 days by flow cytometry (reference value: 2.7 +/- 0.12 10^7No_unit); assay type: functional
Mus musculus [30] = assay: Immunopotentiating activity in sheep RBC-immunized BALB/c mouse assessed as CD8-positive T-cell content in spleen at 0.001 mg/kg, po for 14 days by flow cytometry (reference value: 1.47 +/- 0.04 10^7No_unit); assay type: functional
Mus musculus [31] = assay: Immunopotentiating activity in sheep RBC-immunized BALB/c mouse assessed as CD8-positive T-cell content in spleen at 0.01 mg/kg, po for 14 days by flow cytometry (reference value: 1.47 +/- 0.04 10^7No_unit); assay type: functional
Mus musculus [32] = assay: Immunopotentiating activity in sheep RBC-immunized BALB/c mouse assessed as CD8-positive T-cell content in spleen at 0.1 mg/kg, po for 14 days by flow cytometry (reference value: 1.47 +/- 0.04 10^7No_unit); assay type: functional
Mus musculus [33] = assay: Immunopotentiating activity in sheep RBC-immunized BALB/c mouse assessed as increase in IL2 production in splenocytes administered orally for 14 days followed by incubation with ConA for 48 hrs by ELISA; assay type: functional, cell-based
Mus musculus [34] = assay: Immunopotentiating activity in sheep RBC-immunized BALB/c mouse assessed as increase in interferon-gamma production in splenocytes administered orally for 14 days followed by incubation with ConA for 48 hrs by ELISA; assay type: functional, cell-based
Mus musculus [35] = assay: Immunopotentiating activity in sheep RBC-immunized BALB/c mouse assessed as increase in IL4 production in splenocytes administered orally for 14 days followed by incubation with ConA for 48 hrs by ELISA; assay type: functional, cell-based
Mus musculus [36] = assay: Immunopotentiating activity in sheep RBC-immunized BALB/c mouse assessed as increase in macrophage production by measuring increase in NO production administered orally for 14 days followed by incubation with LPS for 48 hrs by Griess assay; assay type: functional
Mus musculus [37] = species: Mus musculus; assay: Cytotoxicity in BALB/c mouse splenocytes at 100 ug/ml measured after 72 hrs by MTT assay; assay type: toxicity; settings: splenocyte

O=c1ccc2ccc(O)cc2o1
Activity (Splenic lymphocyte [1]): Active
Activity (Splenic lymphocyte [2]): Active
Activity (Splenic lymphocyte [3]): Active
Activity (Splenic lymphocyte [4]): Active

O=c1ccc2ccc(OCC3CC(c4ccc(Cl)cc4)=NO3)cc2o1 (stereo unspecified)
Activity (Splenic lymphocyte [1]): Active
Activity (Splenic lymphocyte [2]): Active
Activity (Splenic lymphocyte [3]): Active
Activity (Splenic lymphocyte [4]): Active

O=c1ccc2ccc(OCC3CC(c4cccc5ccccc45)=NO3)cc2o1 (stereo unspecified)
Activity (Splenic lymphocyte [1]): Active
Activity (Splenic lymphocyte [2]): Active
Activity (Splenic lymphocyte [3]): Active
Activity (Splenic lymphocyte [4]): Active

COc1ccc(C2=NOC(COc3ccc4ccc(=O)oc4c3)C2)cc1 (stereo unspecified)
Activity (Splenic lymphocyte [5]): Dose-dependent effect
Activity (Splenic lymphocyte [6]): Dose-dependent effect
Activity (Mus musculus [7]): Active
Activity (Mus musculus [8]): Active
Activity (Mus musculus [9]): Active
Activity (Mus musculus [10]): Active
Activity (Mus musculus [11]): Active
Activity (Mus musculus [12]): Active
Activity (Mus musculus [13]): Active
Activity (Mus musculus [14]): Dose-dependent effect
Activity (Mus musculus [15]): Dose-dependent effect
Activity (Mus musculus [16]): Dose-dependent effect
Activity (Mus musculus [17]): Dose-dependent effect
Activity (Mus musculus [18]): 30.3%
Activity (Mus musculus [19]): 34.2%
Activity (Mus musculus [20]): 40.2%
Activity (Mus musculus [21]): 16.4%
Activity (Mus musculus [22]): 19.8%
Activity (Mus musculus [23]): 21.6%
Ratio (Mus musculus [24]): 1.32
Ratio (Mus musculus [25]): 1.72
Ratio (Mus musculus [26]): 1.86
Activity (Mus musculus [27]): 1.23 ×10⁷ No_unit
Activity (Mus musculus [28]): 1.61 ×10⁷ No_unit
Activity (Mus musculus [29]): 1.85 ×10⁷ No_unit
Activity (Mus musculus [30]): 1.26 ×10⁷ No_unit
Activity (Mus musculus [31]): 1.35 ×10⁷ No_unit
Activity (Mus musculus [32]): 1.48 ×10⁷ No_unit
Activity (Mus musculus [33]): Dose-dependent effect
Activity (Mus musculus [34]): Dose-dependent effect
Activity (Mus musculus [35]): Dose-dependent effect
Activity (Mus musculus [36]): Dose-dependent effect
Activity (Mus musculus [37]): Non-Toxic

O=c1ccc2ccc(OCC3CC(c4ccc(Br)cc4)=NO3)cc2o1 (stereo unspecified)
Activity (Splenic lymphocyte [1]): Active
Activity (Splenic lymphocyte [2]): Active
Activity (Splenic lymphocyte [3]): Active
Activity (Splenic lymphocyte [4]): Active

COc1ccccc1C1=NOC(COc2ccc3ccc(=O)oc3c2)C1 (stereo unspecified)
Activity (Splenic lymphocyte [5]): Dose-dependent effect
Activity (Splenic lymphocyte [6]): Dose-dependent effect
Activity (Mus musculus [7]): Active
Activity (Mus musculus [8]): Active
Activity (Mus musculus [9]): Active
Activity (Mus musculus [10]): Active
Activity (Mus musculus [11]): Active
Activity (Mus musculus [12]): Active
Activity (Mus musculus [13]): Active
Activity (Mus musculus [14]): Dose-dependent effect
Activity (Mus musculus [15]): Dose-dependent effect
Activity (Mus musculus [16]): Dose-dependent effect
Activity (Mus musculus [17]): Dose-dependent effect
Activity (Mus musculus [18]): 20.3%
Activity (Mus musculus [19]): 24.2%
Activity (Mus musculus [20]): 31.1%
Activity (Mus musculus [21]): 15.4%
Activity (Mus musculus [22]): 15.3%
Activity (Mus musculus [23]): 18.4%
Ratio (Mus musculus [24]): 1.32
Ratio (Mus musculus [25]): 1.58
Ratio (Mus musculus [26]): 1.69
Activity (Mus musculus [27]): 1.02 ×10⁷ No_unit
Activity (Mus musculus [28]): 1.31 ×10⁷ No_unit
Activity (Mus musculus [29]): 1.51 ×10⁷ No_unit
Activity (Mus musculus [30]): 0.88 ×10⁷ No_unit
Activity (Mus musculus [31]): 1.18 ×10⁷ No_unit
Activity (Mus musculus [32]): 1.37 ×10⁷ No_unit
Activity (Mus musculus [33]): Dose-dependent effect
Activity (Mus musculus [34]): Dose-dependent effect
Activity (Mus musculus [35]): Dose-dependent effect
Activity (Mus musculus [36]): Dose-dependent effect
Activity (Mus musculus [37]): Non-Toxic

Cc1ccccc1C1=NOC(COc2ccc3ccc(=O)oc3c2)C1 (stereo unspecified)
Activity (Splenic lymphocyte [5]): Dose-dependent effect
Activity (Splenic lymphocyte [6]): Dose-dependent effect

O=c1ccc2ccc(OCC3CC(c4ccc(F)cc4)=NO3)cc2o1 (stereo unspecified)
Activity (Splenic lymphocyte [1]): Active
Activity (Splenic lymphocyte [2]): Active
Activity (Splenic lymphocyte [3]): Active
Activity (Splenic lymphocyte [4]): Active

Cc1ccc(C2=NOC(COc3ccc4ccc(=O)oc4c3)C2)cc1 (stereo unspecified)
Activity (Splenic lymphocyte [5]): Dose-dependent effect
Activity (Splenic lymphocyte [6]): Dose-dependent effect

O=c1ccc2ccc(OCC3CC(c4ccc([N+](=O)[O-])cc4)=NO3)cc2o1 (stereo unspecified)
Activity (Splenic lymphocyte [1]): Active
Activity (Splenic lymphocyte [2]): Active
Activity (Splenic lymphocyte [3]): Active
Activity (Splenic lymphocyte [4]): Active

COc1cccc(C2=NOC(COc3ccc4ccc(=O)oc4c3)C2)c1 (stereo unspecified)
Activity (Splenic lymphocyte [5]): Dose-dependent effect
Activity (Splenic lymphocyte [6]): Dose-dependent effect
